Results as given in paper PMC8746705, “Comparison of Experimental Strategies to Study L-Type Amino Acid Transporter 1 (LAT1) Utilization by Ligands” (Molecules, 2021).
Read-outs that look alike come from different tables or passages of the source.

Key:
LAT1 [1] = biological target: T1, LAT1 (Mus musculus, UniProt Q9Z127); test: Cis-inhibition of radiolabelled LAT1-probe substrate uptake into BV2 cells; format: cell-based; details: for IC50: 5 min, mean ± SD
Procedure: (§1) After removal of the culture medium, the BV2 cells were carefully washed with pre-warmed HBSS (Hank’s balanced salt solution) containing 125.0 mM choline chloride, 4.8 mM KCl, 1.2 mM MgSO4, 1.2 mM KH2PO4, 1.3 mM CaCl2, 5.6 mM glucose, and 25.0 mM HEPES (pH 7.4 adjusted with 1 M NaOH). Pre-incubation was done with 500 μL of pre-warmed HBSS at 37 °C for 10 min before adding substrates (250 μL in HBSS) for the uptake experiments.
The ability of compounds 1–15 to inhibit the uptake of a known LAT1 substrate [^14C]-L-leucine was then evaluated by incubating the cells at 37 °C for 5 min in uptake buffer pH 7.4 (250 μL) containing 0.2 µCi/mL of [^14C]-L-leucine, or 2 µCi/mL of [^3H]-L-methionine, [^3H]-L-tryptophan or [^3H]-L-kynurenine (PerkinElmer, Waltham, MA, USA) and 0.1–1000 μM of the studied compound (or HBSS as blank). After incubation, the uptake was stopped by adding 250 µL of ice-cold HBSS, and the cells were washed two times with ice-cold HBSS. The cells were then lysed with 500 μL of NaOH (0.1 M) for 60 min and the lysate was mixed with 3.5 mL of Emulsifier safe cocktail (Ultima Gold, PerkinElmer, Waltham, MA, USA). The radioactivity in the cells was measured by liquid scintillation counting (MicroBeta^2 counter, PerkinElmer Waltham, MA, USA). Half of the maximum inhibitory concentration (IC50) values were calculated by nonlinear regression analysis (fitting the curve to log (concentration) vs. remaining normalized […]).

LAT1 [2] = biological target: T1, LAT1; test: Concentration-dependent cellular uptake into BV2 cells, Eadie–Hofstee analysis, Transport Type 1 (LAT1); format: cell-based; details: 1–200 µM, 30 min, BV2; Eadie–Hofstee; mean ± SD, n = 3
Procedure: (§2) For the concentration-dependent cellular uptake experiments, the BV2 cells on 24-well plates were incubated with studied compounds (1–200 μM) in pre-warmed HBSS buffer (250 μL) at 37 °C for 30 min. The experiment was then carried out as described for the time-dependent uptake above and the concentration of studied compounds in the cell lysate was analyzed by the LC-MS/MS methods described above and the results were normalized to the total protein concentration. The distinct transport mechanisms were separated from the Michaelis-Menten kinetics by using Eadie–Hofstee plot.
(§3) The studied compounds (1–15) were analyzed by using Agilent 1200 Series Rapid Resolution LC System together with an Agilent 6410 Triple Quadrupole Mass Spectrometer equipped with an electrospray ionization source (Agilent Technologies, Santa Clara, CA, USA). The chromatographic separations of analytes were achieved by using a reversed-phase Zobrax SB-C18 column (50 mm × 2.1 mm, 1.8 μm; Agilent Technologies, Santa Clara, CA, USA) by eluting the samples with 0.1% formic acid in water (A) and 0.1% formic in ACN (B). Labetalol and diclofenac were used as internal standards (ISTD) for the prodrugs and parent drugs, respectively. The transitions used for the quantification at the positive ion mode and chromatographic conditions of each compound and their parent drugs are listed in Table S1. The methods of compounds 1–11 have been reported earlier, while the methods of compounds 12–15 are reported herein for the first time.

LAT1 [3] = biological target: T1, LAT1; test: Cellular uptake of L-leucine after pre-incubation of BV2 cells with the compounds; format: cell-based; details: 100 µM (L-glutamine 2 mM) pre-incubated 10 min or 3 h, L-leucine 1–400 µM, 5 min
Procedure: The ability of compounds 1–15 to affect the uptake of a known LAT1 substrate L-leucine was evaluated by pre-incubating the BV2 cells at 37 °C for 10 min or 3 h with uptake buffer pH 7.4 (250 μL) containing 100 µM of compounds 1–15 or thyroxin (T4), or known nuclear receptor inducible compounds, phenobarbital (constitutive androstane receptor, CAR), and dexamethasone (pregnane X receptor, PXR) as controls. […] After incubation, the reaction was stopped by adding 250 µL of ice-cold HBSS, and the cells were washed two times with ice-cold HBSS. The cells were then lysed with 500 μL of 0.1 M NaOH (60 min) and the lysate was mixed with 3.5 mL of Emulsifier safe cocktail (Ultima Gold, PerkinElmer, Waltham, MA, USA). The radioactivity in the cells was measured by liquid scintillation counting (MicroBeta^2 counter, PerkinElmer Waltham, MA, USA). The results were multiplied by the amount of un-labeled proportion of L-leucine in each sample.

[4] = system: immortalized mouse microglia (BV2); test: Time-dependent cellular uptake of compounds into BV2 cells (LC-MS/MS); format: cell-based; details: for Max. cellular uptake: 100 µM compound, 1–60 min, mean ± SD, n = 3
Procedure: (§4) For the time-dependent cellular uptake experiments, the BV2 cells on 24-well plates were incubated with studied compounds (100 μM) in a pre-warmed HBSS buffer (250 μL) at 37 °C for 1–60 min. Subsequently, the cells were washed three times with an ice-cold HBSS and lysed with 250 μL of NaOH (0.1 M) for 60 min. The lysates were diluted with acetonitrile (ACN) including the selected internal standard (diclofenac to all compounds) with a ratio of 1:3 and centrifuged at 10,000× g for 10 min. The samples were analyzed by the liquid chromatography-tandem mass spectrometric (LC-MS/MS) methods as described below. The concentrations of each compound in cell lysates were calculated from the standard curve that was prepared by spiking known amounts of compounds to ACN including the selected internal standard and then normalized with protein concentration. The protein concentrations on each plate were determined as a mean of three samples by Bio-Rad Protein Assay, based on the Bradford dye-binding method, using bovine serum albumin (BSA) as a standard protein and measuring the absorbance (595 nm) by multiplate reader (EnVision, Perkin Elmer, Inc., Waltham, MA, USA).
as §3

[5] = as above; format: cell-based, mouse; details: mouse, BV2 microglia cells, 100 µM compound, 1–60 min, mean ± SD, n = 3, read-out: T½ of cellular uptake
Procedure: as §4, §3

LAT1 [6] = biological target: T1, LAT1; test: Cellular uptake of compounds in the presence of LAT1-inhibitor (KMH-233); format: cell-based; details: 100 µM compound, 100 µM KMH-233, 30 min, BV2
Procedure: The competitive uptake in the presence of LAT1-inhibitor (KMH-233) was carried out as described above with HBSS buffer solution containing 100 µM of the studied compounds. The cells were pre-incubated with 100 µM LAT1-inhibitor for 10 min and the incubation mixture was removed before adding the studied compound and LAT1-inhibitor on the cells. The competitive uptake (30 min) with the inhibitor was then carried out as the normal uptake described above. The amounts of studied compounds were analyzed by the LC-MS method and calculated from the spiked standard curve and normalized with the protein concentrations.

Transport Type 2 = test: Concentration-dependent cellular uptake into BV2 cells, Eadie–Hofstee analysis, Transport Type 2; format: cell-based, mouse; details: 1–200 µM, 30 min, mean ± SD, n = 3
Procedure: as §2, §3

LAT1 [7] = biological target: T1, LAT1; test: Inhibition type of [14C]-L-Leu uptake (Hanes-Woolf plots) in BV2 cells; format: cell-based; details: for Vmax of [14C]-L-Leu uptake: 0.010–0.20 µM [14C]-L-Leu in the presence of the compound at its IC50, mean ± SD, n = 3–4; for Vmax of [14C]-L-Leu uptake / Inhibition Type: BV2; for Inhibition Type: of [14C]-L-Leu uptake, concluded from Km and Vmax
Procedure: as §1
To evaluate the inhibition type of studied compounds, the BV2 cells were incubated with 0.010–0.20 μM [^14C]-L-leucine together with the studied compound. The concentration of compounds was selected according to the compound-specific IC50 values. The experiment was then carried out as described for the [^14C]-L-leucine uptake above and the radioactivity was measured by liquid scintillation counting. Hanes-Woolf plots were created by setting the ratio of initial substrate concentration to the reaction velocity ([S]/v) against [^14C]-L-leucine concentration (µM). The linear regression was used to calculate Km value (negative value of x-intercept) and Vmax value (1/slope) for [^14C]-L-leucine.

LAT1 [8] = biological target: T1, LAT1; set-up: method as in earlier work; details: BV2 cells; probe [14C]-L-Leu; mean ± SD; published earlier; ref [31] or [33]; read-out: IC50 of [14C]-L-Leu uptake; cited from earlier work
LAT1 [9] = test: Quantitative expression of LAT1 on the BV2 plasma membrane (LC-MS proteomics); format: cell-based, mouse; details: BV2 cells incubated 24 h; normalized to Na+/K+ATPase; compared to untreated control
Procedure: The protein expression levels of LAT1, in the plasma membrane fractions of BV2 cells were quantified using multiplexed MRM analysis according to the protocol described by Uchida et al.. First, the crude membrane fractions were isolated from three distinct sets of cell culture plates using Membrane Protein Extraction Kit (BioVision Incorporated, Milpitas, CA, USA) according to the manufacturer’s instructions. The protein content for each fraction was measured by Bio-Rad Protein Assay, based on the Bradford dye-binding method (EnVision, Perkin Elmer, Inc., Waltham, MA, USA). A total amount of 50 µg protein from each fraction was solubilized/denatured in 7 M guanidine hydrochloride, 0.5 M Tris-HCl and 10 mM EDTA-Na. The proteins were then reduced by dithiothreitol (1:50, w/w) and S-carboxymethylated by iodoacetamide (1:20, w/w). The alkylated proteins were precipitated by methanol/chloroform/water (4:1:3) and centrifuged at 18,000× g for 5 min at 4 °C. The pellet was resuspended in 6 M urea and mixed for 10 min at room temperature before the dilution with 0.1 M Tris-HCl (pH 8.5) to a final concentration of 1.2 M urea, and dissolved completely by intermittent sonication (Branson 3510, Danbury, CT, USA). The dissolved proteins were first digested with LysC (1/100, w/w) and 0.05% ProteaseMax (Promega Biotech AB, Nacka, Sweden) for 3 h at room temperature. Then, the samples were spiked with 10 µL (30 fmol) of the labelled peptides for absolute quantification (JPT Peptide Technologies GmbH, Berlin, Germany) (Table S2). The samples were incubated with (1/100, w/w) TPCK-Trypsin (Promega Biotech AB, Nacka, Sweden) for 18 h at 37 °C. The tryptic digestion was then quenched by adding 40 µL of 5% formic acid. The samples were then centrifuged at 18,000× g for 5 min at 4 °C, and the supernatants were transferred to vials for analysis.
The digested peptides were analyzed using an ultra-performance liquid chromatography system coupled with a triple quadrupole mass spectrometer with a heated electrospray ionization source in the positive mode (UPLC 1290 and MSD 6495, Agilent Technologies, Santa Clara, CA, USA). A total amount of 20 µL of the digested peptides (10 µg) was separated using AdvanceBio Peptide Map 2.1 × 250 mm, 2.7 μm column (Agilent Technologies, Santa Clara, CA, USA) and LC eluents of 0.1% formic acid in water (A) and acetonitrile (B). The peptides were eluted following a constant flow rate of 0.3 mL/min and a gradient of 2–7% B for 2 min, followed by 7–30% B for 48 min, 30–45% B for 3 min, and 45–80% B for 2.5 min before re-equilibrating the column again for 4.5 min. LAT1 was quantified based on the ratio between the light and heavy standard peptides, as described previously (Table S2). Data was acquired using Agilent MassHunter Workstation Acquisition (Agilent Technologies, Data Acquisition for Triple Quadrupole, version B.03.01) and processed by using Skyline software (version 20.1). The results were normalized to a housekeeping protein Na+/K+ATPase and expressed as fmol/µg of the total amount of protein in the samples.

[10] = probe [3H]-L-Kynu, n = 3–4, read-out: IC50 of [3H]-L-Kynu uptake
[11] = probe [3H]-L-Met, n = 3–4, read-out: IC50 of [3H]-L-Met uptake
[12] = probe [3H]-L-Trp, n = 3–4, read-out: IC50 of [3H]-L-Trp uptake

T1 sequence (Q9Z127 whole entry): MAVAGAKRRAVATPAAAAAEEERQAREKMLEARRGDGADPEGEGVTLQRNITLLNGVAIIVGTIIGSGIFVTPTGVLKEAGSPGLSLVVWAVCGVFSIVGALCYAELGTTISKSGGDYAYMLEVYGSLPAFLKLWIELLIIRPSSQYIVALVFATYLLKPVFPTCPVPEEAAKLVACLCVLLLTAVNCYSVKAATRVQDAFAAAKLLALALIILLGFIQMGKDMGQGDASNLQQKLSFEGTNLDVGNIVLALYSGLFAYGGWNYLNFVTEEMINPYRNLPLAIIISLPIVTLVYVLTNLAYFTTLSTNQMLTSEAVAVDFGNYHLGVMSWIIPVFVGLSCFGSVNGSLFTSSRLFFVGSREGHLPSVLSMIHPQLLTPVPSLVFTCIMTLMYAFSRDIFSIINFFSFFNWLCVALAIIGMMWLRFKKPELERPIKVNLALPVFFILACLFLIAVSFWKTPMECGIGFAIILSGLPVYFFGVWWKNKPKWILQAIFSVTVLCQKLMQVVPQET
T1 sequence (P10852 whole entry partner): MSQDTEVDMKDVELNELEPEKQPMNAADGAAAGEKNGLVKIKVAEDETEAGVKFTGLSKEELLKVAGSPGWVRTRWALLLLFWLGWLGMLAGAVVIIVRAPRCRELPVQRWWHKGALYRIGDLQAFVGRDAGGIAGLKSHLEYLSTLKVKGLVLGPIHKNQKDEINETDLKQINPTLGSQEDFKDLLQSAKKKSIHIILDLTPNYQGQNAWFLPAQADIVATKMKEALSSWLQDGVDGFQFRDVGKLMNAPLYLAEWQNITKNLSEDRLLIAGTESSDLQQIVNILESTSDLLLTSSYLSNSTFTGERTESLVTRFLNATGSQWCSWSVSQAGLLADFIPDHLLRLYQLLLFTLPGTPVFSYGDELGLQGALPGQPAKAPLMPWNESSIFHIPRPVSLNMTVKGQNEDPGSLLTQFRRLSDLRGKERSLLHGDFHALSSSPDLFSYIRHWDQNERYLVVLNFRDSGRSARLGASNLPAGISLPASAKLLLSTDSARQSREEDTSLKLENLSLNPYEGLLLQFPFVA

Row | IC50 (LAT1 [1]; [10]) [µM] | IC50 (LAT1 [1]; [11]) [µM] | IC50 (LAT1 [1]; [12]) [µM] | IC50 (LAT1 [1]; probe [14C]-L-Leu, n = 3–4, read-out: IC50 of [14C]-L-Leu uptake) [µM] | Km (LAT1 [2]) [µM] | Transport Type 1 (LAT1) Vmax (LAT1 [2]) [pmol/mg/min] | half-life at 100 μM [5] [min] | Cellular uptake in the presence of LAT1-inhibitor (LAT1 [6]) | Vmax of [14C]-L-Leu uptake (LAT1 [7]) [nmol/min/mg] | Inhibition Type (LAT1 [7]) | IC50 (LAT1 [7]; Table 2, compound concentration used in the inhibition type study, corresponding to IC50 of [14C]-L-Leu uptake) [µM] | Compound | Inhibition of LAT1-probe substrate uptake / LAT1 affinity (LAT1 [1]; over all probe substrates) | Effect on cellular uptake of L-Leu after pre-incubation (LAT1 [3]) | Max. cellular uptake [4] | Km (Transport Type 2) [µM] | Transport Type 2 Vmax (Transport Type 2) [pmol/mg/min] | LAT1-substrate or LAT1-binder ([4]; concluded from time-dependent uptake, 100 µM) | IC50 (LAT1 [8]) [µM] | LAT1 expression on the plasma membrane (LAT1 [9])
1 | 54.3 ± 1.3 | > 100 | > 100 | > 100 | 3.6 ± 0.4 | 0.11 ± 0.01 | 9.38 ± 2.33 | inhibited significantly | 3.224 ± 0.077 | Non-competitive | – | COc1cc(/C=C/C(=O)Nc2cccc(C[C@H](N)C(=O)O)c2)ccc1O [Compound 6] | not able to inhibit the LAT1-probe substrate uptake very effectively | induced the uptake of L-Leu | 1.11 ± 0.09 nmol/mg of protein | 78 ± 16 | 0.26 ± 0.02 | – | – | –
2 | 1.8 ± 1.2 | 10.4 ± 1.5 | 14 ± 1.2 | – | 2.6 ± 1.2 | 53 ± 8 | – | only reductive trends were seen | 1.515 ± 0.125 | Non-competitive | 10 | COc1ccc2cc([C@H](C)C(=O)Nc3cccc(C[C@H](N)C(=O)O)c3)ccc2c1 [Compound 11] | – | – | 4.48 ± 0.37 nmol/mg of protein | – | – | LAT1-binders rather than substrates | 9 ± 1.1 | –
3 | – | – | – | – | – | – | – | – | – | – | – | N[C@@H](Cc1cc(I)c(Oc2cc(I)c(O)c(I)c2)c(I)c1)C(=O)O [Compound T4, thyroxin, reference compound] | – | induced the uptake of L-Leu | – | – | – | – | – | downregulated LAT1 expression
